Laboratory results published in patent publication US9981940B2, “Aryl sulfide derivatives and aryl sulfoxide derivatives as acaricides and insecticides” (BAYER CROPSCIENCE AKTIENGESELLSCHAFT, priority 2013, dated 2018).

How the values were obtained:
Boophilus microplus = Boophilus microplus injection test (BOOPMI Inj); type: in vivo; conditions: application rate of 20 μg/animal, assessed after 7 days by laying of fertile eggs
In short: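 Engorged adult female ticks (5 per test) injected in the abdomen with 1 μl of compound solution in DMSO, then held in a climate-controlled room. Efficacy scored after 7 days from fertile egg laying, with 100% meaning no fertile eggs and 0% all eggs fertile.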

Myzus persicae = Myzus persicae spray test (MYZUPE); type: in vivo; conditions: application rate of 100 g/ha; after 6 days
Experimental: Myzus persicae—Spray Test (MYZUPE)
• Solvent: 78 parts by weight of acetone • 1.5 parts by weight of dimethylformamide • Emulsifier: 0.5 part by weight of alkylaryl polyglycol ether
To produce an appropriate active ingredient formulation, 1 part by weight of active ingredient is mixed with the specified amounts of solvent and emulsifier, and the concentrate is diluted to the desired concentration with emulsifier-containing water.
Discs of Chinese cabbage leaves (Brassica pekinensis) infested by all stages of the green peach aphid (Myzus persicae) are sprayed with an active ingredient formulation of the desired concentration.
After 6 days, the activity in % is determined 100% means that all the aphids have been killed; 0% means that none of the aphids have been killed.

Phaedon cochleariae = Phaedon cochleariae spray test (PHAECO); type: in vivo; conditions: application rate of 500 g/ha; after 7 days
In short: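 Chinese cabbage (Brassica pekinensis) leaf discs sprayed with acetone/DMF/emulsifier formulation diluted in emulsifier-containing water, dried, then populated with mustard beetle larvae. Efficacy scored after 7 days as % larvae killed (100% = all killed, 0% = none).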

Spodoptera frugiperda = Spodoptera frugiperda spray test (SPODFR); type: in vivo; conditions: application rate of 500 g/ha; after 7 days
Experimental: Spodoptera frugiperda—Spray Test (SPODFR)
• Solvent: 78.0 parts by weight of acetone • 1.5 parts by weight of dimethylformamide • Emulsifier: alkylaryl polyglycol ether
To produce an appropriate active ingredient formulation, 1 part by weight of active ingredient is dissolved using the specified parts by weight of solvent and made up with water containing an emulsifier concentration of 1000 ppm until the desired concentration is attained. To produce further test concentrations, the preparation is diluted with emulsifier-containing water.
Leaf discs of maize (Zea mays) are sprayed with an active ingredient formulation of the desired concentration and, after drying, populated with caterpillars of the armyworm (Spodoptera frugiperda).
After 7 days, the activity in % is determined 100% means that all caterpillars have been killed; 0% means that none of the caterpillars have been killed.

Tetranychus urticae = Tetranychus urticae spray test, OP-resistant (TETRUR); type: in vivo; conditions: application rate of 500 g/ha; after 6 days
In short: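 Bean leaf discs infested with all stages of an OP-resistant Tetranychus urticae strain sprayed with compound in acetone/DMF with alkylaryl polyglycol ether emulsifier, diluted in water. Efficacy in % scored after 6 days; 100% means all mites killed.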

[1] = log P by HPLC (OECD Guideline 117), method [a] acidic range; type: physicochemical; conditions: HPLC, method [a] acidic range
Experimental: (§1) The log P values were determined analogously to OECD Guideline 117 (EC Directive 92/69/EEC) by HPLC (high-performance liquid chromatography) using reversed-phase columns (C 18), by the following methods:
[a] The LC-MS determination in the acidic range is effected at pH 2.7 with 0.1% aqueous formic acid and acetonitrile (contains 0.1% formic acid) as eluents; linear gradient from 10% acetonitrile to 95% acetonitrile.

[2] = log P by HPLC (OECD Guideline 117), method [b] neutral range; type: physicochemical; conditions: HPLC, method [b] neutral range
Experimental: as §1
[b] The LC-MS determination in the neutral range is effected at pH 7.8 with 0.001 molar aqueous ammonium hydrogencarbonate solution and acetonitrile as eluents; linear gradient from 10% acetonitrile to 95% acetonitrile.

logP[a] [1]: 2.44
logP[b] [2]: 2.41
SMILES: CCCn1c(OC)nn(-c2cc([S+]([O-])CC(F)(F)F)c(C)cc2F)c1=O (stereo not shown) [Example 411]
efficacy (Boophilus microplus): 100%
efficacy (Myzus persicae): 90%
efficacy (Phaedon cochleariae): 100%
efficacy (Spodoptera frugiperda): 100%
efficacy (Tetranychus urticae): 100%
